Assay results from the NIST ThermoML archive (doi:10.1016/j.jct.2012.06.009).
± gives the expanded uncertainty stated by the source.

Assay: activity coefficient (dimensionless); of the first substance listed, at infinite dilution; xn = mol fraction of the nth substance listed
Conditions: 101 kPa, Liquid, Chromatography, x1 = 0

| activity coefficient (314.1 K) | activity coefficient (314.24 K) | activity coefficient (333.26 K) | activity coefficient (333.38 K) | activity coefficient (353.3 K) | activity coefficient (353.25 K) | Compound | also measured |
| --- | --- | --- | --- | --- | --- | --- | --- |
| 1.45 ± 0.12 | 1.5 ± 0.13 | 1.35 ± 0.11 | 1.4 ± 0.12 | 1.27 ± 0.11 | – | ClCCCl [1,2-dichloroethane] + CCCCCCCCCC(=O)O | – |
| 1.38 ± 0.12 | 1.37 ± 0.12 | 1.3 ± 0.11 | 1.32 ± 0.11 | – | 1.23 ± 0.1 | ClCCCl [1,2-dichloroethane] + CCCCCCCCCCCC(=O)O | – |
| 1.21 ± 0.1 | 1.24 ± 0.1 | 1.2 ± 0.099 | 1.18 ± 0.098 | 1.13 ± 0.093 | 1.13 ± 0.094 | ClCCCl [1,2-dichloroethane] + CCCCCCCCCCCCCC(=O)O | – |
| – | – | – | – | – | – | ClCCCl [1,2-dichloroethane] + CCCCCCCCCCCCCCCC(=O)O | activity coefficient (340.19 K): 1.22 ± 0.1; activity coefficient (348.01 K): 1.19 ± 0.099; activity coefficient (358.22 K): 1.14 ± 0.095 |
| 2.02 ± 0.17 | 1.98 ± 0.17 | 1.91 ± 0.16 | – | – | 1.86 ± 0.16 | CC(C)CC(C)(C)C [2,2,4-trimethylpentane] + CCCCCCCCCC(=O)O | – |
| 1.75 ± 0.15 | 1.77 ± 0.15 | 1.7 ± 0.14 | 1.72 ± 0.15 | 1.69 ± 0.14 | 1.67 ± 0.14 | CC(C)CC(C)(C)C [2,2,4-trimethylpentane] + CCCCCCCCCCCC(=O)O | – |
| – | – | – | – | – | – | CC(C)CC(C)(C)C [2,2,4-trimethylpentane] + CCCCCCCCCCCCCC(=O)O | activity coefficient (338.27 K): 1.53 ± 0.13; activity coefficient (348.3 K): 1.5 ± 0.13; activity coefficient (358.33 K): 1.45 ± 0.12 |
| – | – | – | – | – | – | CC(C)CC(C)(C)C [2,2,4-trimethylpentane] + CCCCCCCCCCCCCCCC(=O)O | activity coefficient (340.19 K): 1.5 ± 0.13; activity coefficient (348.01 K): 1.46 ± 0.12; activity coefficient (358.32 K): 1.42 ± 0.12 |
| – | – | – | – | – | – | ClCc1ccccc1 [(chloromethyl)benzene] + CCCCCCCCCCCC(=O)O | activity coefficient (358.06 K): 1.71 ± 0.15; activity coefficient (358.1 K): 1.71 ± 0.15 |
| – | – | – | – | – | – | ClCc1ccccc1 [(chloromethyl)benzene] + CCCCCCCCCCCCCCCC(=O)O | activity coefficient (348.01 K): 1.62 ± 0.14; activity coefficient (358.22 K): 1.57 ± 0.13 |
| – | – | – | – | – | – | CC(C)=O [acetone] + CCCCCCCCCCCCCCCC(=O)O | activity coefficient (340.17 K): 1.49 ± 0.13; activity coefficient (340.19 K): 1.49 ± 0.13; activity coefficient (347.93 K): 1.41 ± 0.12; activity coefficient (348.01 K): 1.42 ± 0.12; activity coefficient (358.23 K): 1.32 ± 0.11; activity coefficient (358.32 K): 1.34 ± 0.11 |
| – | – | – | – | 1.45 ± 0.12 | 1.43 ± 0.12 | COc1ccccc1 [anisole] + CCCCCCCCCC(=O)O | – |
| – | – | 1.37 ± 0.12 | – | 1.35 ± 0.11 | 1.33 ± 0.11 | COc1ccccc1 [anisole] + CCCCCCCCCCCC(=O)O | activity coefficient (343.65 K): 1.35 ± 0.11 |
| 1.32 ± 0.11 | 1.3 ± 0.11 | 1.29 ± 0.11 | 1.27 ± 0.11 | 1.21 ± 0.1 | 1.24 ± 0.1 | COc1ccccc1 [anisole] + CCCCCCCCCCCCCC(=O)O | – |
| – | – | – | – | – | – | COc1ccccc1 [anisole] + CCCCCCCCCCCCCCCC(=O)O | activity coefficient (340.19 K): 1.3 ± 0.11; activity coefficient (348.01 K): 1.28 ± 0.11; activity coefficient (358.22 K): 1.25 ± 0.1 |
| – | – | 1.48 ± 0.13 | – | 1.32 ± 0.11 | 1.34 ± 0.11 | CCCCO [butan-1-ol] + CCCCCCCCCC(=O)O | activity coefficient (333.35 K): 1.53 ± 0.13 |
| – | 1.7 ± 0.14 | 1.54 ± 0.13 | 1.51 ± 0.13 | 1.36 ± 0.11 | 1.34 ± 0.11 | CCCCO [butan-1-ol] + CCCCCCCCCCCC(=O)O | – |
| 1.49 ± 0.13 | 1.54 ± 0.13 | 1.45 ± 0.12 | 1.42 ± 0.12 | 1.32 ± 0.12 | 1.22 ± 0.11 | CCCCO [butan-1-ol] + CCCCCCCCCCCCCC(=O)O | – |
| – | – | – | – | – | – | CCCCO [butan-1-ol] + CCCCCCCCCCCCCCCC(=O)O | activity coefficient (340.19 K): 1.65 ± 0.14; activity coefficient (348.01 K): 1.55 ± 0.13; activity coefficient (358.32 K): 1.43 ± 0.12 |

| activity coefficient (314.1 K) | activity coefficient (314.24 K) | activity coefficient (333.26 K) | activity coefficient (333.38 K) | activity coefficient (353.3 K) | activity coefficient (353.25 K) | Compound | also measured |
| --- | --- | --- | --- | --- | --- | --- | --- |
| 1.33 ± 0.11 | 1.35 ± 0.11 | 1.17 ± 0.097 | 1.16 ± 0.096 | 1.04 ± 0.085 | 1.05 ± 0.087 | CCC(C)O (stereo not given) [butan-2-ol] + CCCCCCCCCC(=O)O | – |
| 1.28 ± 0.11 | 1.3 ± 0.11 | – | 1.17 ± 0.097 | 1.08 ± 0.089 | 1.06 ± 0.088 | CCC(C)O (stereo not given) [butan-2-ol] + CCCCCCCCCCCC(=O)O | – |
| 1.17 ± 0.097 | 1.21 ± 0.1 | 1.12 ± 0.093 | 1.11 ± 0.092 | 1.04 ± 0.086 | 1.05 ± 0.087 | CCC(C)O (stereo not given) [butan-2-ol] + CCCCCCCCCCCCCC(=O)O | – |
| – | – | – | – | – | – | CCC(C)O (stereo not given) [butan-2-ol] + CCCCCCCCCCCCCCCC(=O)O | activity coefficient (340.19 K): 1.26 ± 0.1; activity coefficient (348.01 K): 1.2 ± 0.1; activity coefficient (358.32 K): 1.12 ± 0.092 |
| – | – | – | – | – | – | Clc1ccccc1 [chlorobenzene] + CCCCCCCCCCCCCCCC(=O)O | activity coefficient (340.19 K): 0.974 ± 0.08; activity coefficient (348.01 K): 0.957 ± 0.079; activity coefficient (358.22 K): 0.974 ± 0.08 |
| 1.44 ± 0.12 | 1.46 ± 0.12 | 1.39 ± 0.12 | 1.39 ± 0.12 | 1.31 ± 0.11 | 1.35 ± 0.12 | C1CCCCC1 [cyclohexane] + CCCCCCCCCC(=O)O | – |
| 1.29 ± 0.11 | 1.28 ± 0.11 | – | 1.25 ± 0.1 | 1.2 ± 0.1 | 1.2 ± 0.1 | C1CCCCC1 [cyclohexane] + CCCCCCCCCCCC(=O)O | – |
| 1.09 ± 0.09 | 1.09 ± 0.09 | – | 1.07 ± 0.088 | 1.02 ± 0.085 | 1.05 ± 0.087 | C1CCCCC1 [cyclohexane] + CCCCCCCCCCCCCC(=O)O | – |
| – | – | – | – | – | – | C1CCCCC1 [cyclohexane] + CCCCCCCCCCCCCCCC(=O)O | activity coefficient (340.19 K): 1.03 ± 0.085; activity coefficient (348.01 K): 1.02 ± 0.084; activity coefficient (358.22 K): 1.01 ± 0.083 |
| 2.12 ± 0.18 | 2.07 ± 0.18 | 1.73 ± 0.15 | 1.78 ± 0.15 | 1.48 ± 0.12 | – | CCO [ethanol] + CCCCCCCCCC(=O)O | – |
| 1.92 ± 0.17 | 2.02 ± 0.17 | – | 1.79 ± 0.15 | 1.57 ± 0.13 | 1.56 ± 0.13 | CCO [ethanol] + CCCCCCCCCCCC(=O)O | – |
| 1.82 ± 0.16 | 1.79 ± 0.15 | 1.67 ± 0.14 | 1.67 ± 0.14 | 1.52 ± 0.13 | 1.53 ± 0.13 | CCO [ethanol] + CCCCCCCCCCCCCC(=O)O | – |
| – | – | – | – | – | – | CCO [ethanol] + CCCCCCCCCCCCCCCC(=O)O | activity coefficient (340.19 K): 1.93 ± 0.17; activity coefficient (348.01 K): 1.8 ± 0.15; activity coefficient (358.23 K): 1.62 ± 0.14 |
| 1.33 ± 0.11 | – | 1.25 ± 0.1 | 1.3 ± 0.11 | – | 1.21 ± 0.1 | CCOC(C)=O [ethyl acetate] + CCCCCCCCCC(=O)O | – |
| 1.37 ± 0.12 | 1.36 ± 0.11 | – | 1.28 ± 0.11 | 1.21 ± 0.1 | 1.2 ± 0.1 | CCOC(C)=O [ethyl acetate] + CCCCCCCCCCCC(=O)O | – |
| 1.24 ± 0.1 | 1.21 ± 0.1 | 1.19 ± 0.099 | 1.19 ± 0.099 | 1.12 ± 0.093 | 1.13 ± 0.094 | CCOC(C)=O [ethyl acetate] + CCCCCCCCCCCCCC(=O)O | – |
| – | – | – | – | – | – | CCOC(C)=O [ethyl acetate] + CCCCCCCCCCCCCCCC(=O)O | activity coefficient (340.19 K): 1.28 ± 0.11; activity coefficient (347.93 K): 1.2 ± 0.1; activity coefficient (358.22 K): 1.16 ± 0.096 |
| – | – | 1.28 ± 0.11 | – | 1.22 ± 0.1 | – | CCc1ccccc1 [ethylbenzene] + CCCCCCCCCC(=O)O | activity coefficient (333.35 K): 1.3 ± 0.11 |

| Compound | activity coefficient (314.1 K) | activity coefficient (314.24 K) | activity coefficient (333.26 K) | activity coefficient (333.38 K) | activity coefficient (353.3 K) | activity coefficient (353.25 K) | also measured |
| --- | --- | --- | --- | --- | --- | --- | --- |
| ClCc1ccccc1 [(chloromethyl)benzene] + CCCCCCCCCCCCCC(=O)O | – | – | 1.61 ± 0.14 | 1.6 ± 0.14 | 1.55 ± 0.13 | 1.57 ± 0.13 | – |
| CC(C)=O [acetone] + CCCCCCCCCC(=O)O | 1.56 ± 0.13 | – | 1.46 ± 0.12 | 1.47 ± 0.12 | – | 1.34 ± 0.11 | – |
| CC(C)=O [acetone] + CCCCCCCCCCCC(=O)O | 1.59 ± 0.14 | 1.59 ± 0.14 | 1.45 ± 0.12 | 1.47 ± 0.12 | 1.36 ± 0.12 | 1.33 ± 0.11 | – |
| CC(C)=O [acetone] + CCCCCCCCCCCCCC(=O)O | 1.43 ± 0.12 | 1.46 ± 0.12 | 1.36 ± 0.11 | 1.35 ± 0.11 | 1.27 ± 0.11 | 1.3 ± 0.11 | – |
| Clc1ccccc1 [chlorobenzene] + CCCCCCCCCC(=O)O | – | – | 1.16 ± 0.096 | 1.18 ± 0.098 | 1.15 ± 0.096 | 1.17 ± 0.097 | – |
| Clc1ccccc1 [chlorobenzene] + CCCCCCCCCCCC(=O)O | 1.11 ± 0.091 | 1.12 ± 0.092 | 1.08 ± 0.089 | – | – | 1.07 ± 0.088 | activity coefficient (343.65 K): 1.07 ± 0.089 |
| Clc1ccccc1 [chlorobenzene] + CCCCCCCCCCCCCC(=O)O | 0.983 ± 0.081 | 0.998 ± 0.082 | 0.996 ± 0.082 | 0.982 ± 0.081 | 0.961 ± 0.079 | 0.979 ± 0.081 | – |
